Reference: patent US9127040B2, “Regulation of sodium channels by PLUNC proteins” (The University of North Carolina at Chapel Hill, priority 2011, dated 2015)

Columns and labels:
NL HBECs = assay: ASL height by confocal microscopy in normal lung (NL) HBECs; type: cell-based, human; settings: Ringer with 50 mM NaCl exchanged for 100 mM POPSO; 3 h
Method: To label airway surface liquid, Ringer containing Texas Red-dextran (2 mg/ml; Invitrogen) was added to human bronchial epithelial culture mucosal surfaces. Perfluorocarbon was added mucosally to prevent evaporation of the airway surface liquid and the culture placed in a chamber containing 100 μl Ringer on the stage of a Leica SP5 confocal microscope with a 63× glycerol immersion objective. 5 points per culture were scanned and an average airway surface liquid height determined. For confocal microscopy human bronchial epithelial cultures were bathed serosally in a modified Ringer solution containing (mM): 116 NaCl, 10 NaHCO3, 5.1 KCl, 1.2 CaCl2, 1.2 MgCl2, 20 TES, 10 glucose, pH 7.4). At all other times, human bronchial epithelial cultures were maintained in a modified BEGM growth medium which contained 24 mM NaHCO3 gassed with 5% CO2.
To label the ASL, PBS containing 10 kDa Rhodamine dextran (0.2-2 mg/mL; Invitrogen, Carlsbad, Calif., USA) was added to HBEC mucosal surfaces as previously described (Tarran et al., Mol. Cell 8:149 (2001)). When added, peptides with or without 100 nM neutrophil elastase, 1 U/mL aprotinin, activated neutrophil supernatant (ANS) (Haynes et al., Am. J. Physiol. Heart Circ. Physiol. 294:H379 (2008)) or 10 μM sivelestat (Sigma-Aldrich, St Louis, Mo., USA) were added to the mucosal surface along with the Rhodamine dextran. Bumetanide (100 μM) was added to the serosal solution.

CF HBECs = settings: Ringer with 50 mM NaCl exchanged for 100 mM POPSO; 3 h
αβγENaC = biological target: T1, αβγENaC (Rattus norvegicus, UniProt P37089+P37090+P37091); assay: Amiloride-sensitive whole cell current, two electrode voltage clamp, Xenopus laevis oocytes expressing αβγENaC; type: cell-based; settings: PLUNC family member co-expressed with α,β,γ ENaC
T1 construct: expressed in transfected cells; host or cells: Xenopus laevis oocytes (cRNA injection)
T1 sequence (P37089 1-698): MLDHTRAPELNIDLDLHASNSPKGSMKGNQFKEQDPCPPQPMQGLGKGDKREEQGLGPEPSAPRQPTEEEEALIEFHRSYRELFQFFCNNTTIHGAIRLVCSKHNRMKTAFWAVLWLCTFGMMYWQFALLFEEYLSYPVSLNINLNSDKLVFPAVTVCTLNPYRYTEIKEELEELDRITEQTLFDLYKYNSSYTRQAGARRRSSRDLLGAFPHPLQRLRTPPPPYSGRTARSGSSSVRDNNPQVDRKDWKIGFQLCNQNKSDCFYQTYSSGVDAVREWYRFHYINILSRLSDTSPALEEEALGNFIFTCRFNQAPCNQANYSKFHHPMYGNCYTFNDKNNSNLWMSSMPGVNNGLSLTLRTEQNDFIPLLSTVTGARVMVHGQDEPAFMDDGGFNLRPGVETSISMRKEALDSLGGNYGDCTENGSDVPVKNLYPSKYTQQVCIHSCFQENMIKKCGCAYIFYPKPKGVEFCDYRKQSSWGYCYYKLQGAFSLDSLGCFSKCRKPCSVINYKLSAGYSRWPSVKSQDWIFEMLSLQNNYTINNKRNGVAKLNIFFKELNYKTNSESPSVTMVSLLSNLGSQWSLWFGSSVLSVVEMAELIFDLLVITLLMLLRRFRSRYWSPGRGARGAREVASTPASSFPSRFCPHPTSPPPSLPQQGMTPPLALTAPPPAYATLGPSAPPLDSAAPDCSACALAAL
T1 sequence (P37090 1-638): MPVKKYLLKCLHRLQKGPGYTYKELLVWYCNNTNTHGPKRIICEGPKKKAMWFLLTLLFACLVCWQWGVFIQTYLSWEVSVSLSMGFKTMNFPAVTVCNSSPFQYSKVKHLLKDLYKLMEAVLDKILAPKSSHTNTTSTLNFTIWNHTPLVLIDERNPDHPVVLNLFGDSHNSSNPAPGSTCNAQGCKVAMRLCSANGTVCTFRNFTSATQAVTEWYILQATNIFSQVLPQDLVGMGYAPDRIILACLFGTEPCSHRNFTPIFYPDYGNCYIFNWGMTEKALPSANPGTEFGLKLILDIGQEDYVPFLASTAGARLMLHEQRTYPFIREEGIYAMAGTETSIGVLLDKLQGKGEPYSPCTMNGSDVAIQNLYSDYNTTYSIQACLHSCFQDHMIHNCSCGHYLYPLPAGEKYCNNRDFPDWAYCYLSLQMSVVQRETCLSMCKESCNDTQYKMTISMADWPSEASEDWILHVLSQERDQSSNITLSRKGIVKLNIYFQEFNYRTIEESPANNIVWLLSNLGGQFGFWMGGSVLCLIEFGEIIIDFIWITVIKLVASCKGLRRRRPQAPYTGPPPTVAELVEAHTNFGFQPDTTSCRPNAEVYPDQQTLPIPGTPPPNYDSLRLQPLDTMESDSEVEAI
T1 sequence (P37091 1-650): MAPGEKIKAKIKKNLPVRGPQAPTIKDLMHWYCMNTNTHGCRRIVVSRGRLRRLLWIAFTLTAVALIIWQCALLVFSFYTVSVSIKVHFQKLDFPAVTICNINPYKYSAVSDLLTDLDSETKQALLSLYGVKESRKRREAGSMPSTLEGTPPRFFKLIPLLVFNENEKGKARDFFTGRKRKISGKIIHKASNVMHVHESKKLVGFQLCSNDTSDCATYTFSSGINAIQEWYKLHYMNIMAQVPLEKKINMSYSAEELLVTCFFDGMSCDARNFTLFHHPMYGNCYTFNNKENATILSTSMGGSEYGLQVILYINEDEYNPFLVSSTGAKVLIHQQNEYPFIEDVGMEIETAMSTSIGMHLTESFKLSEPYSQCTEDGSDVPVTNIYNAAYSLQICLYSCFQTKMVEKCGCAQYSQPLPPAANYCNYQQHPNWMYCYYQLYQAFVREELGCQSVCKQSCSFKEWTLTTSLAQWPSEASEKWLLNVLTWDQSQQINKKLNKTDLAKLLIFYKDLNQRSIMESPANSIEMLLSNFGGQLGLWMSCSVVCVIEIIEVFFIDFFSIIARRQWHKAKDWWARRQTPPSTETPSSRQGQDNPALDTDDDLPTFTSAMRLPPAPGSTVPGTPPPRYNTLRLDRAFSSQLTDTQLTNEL
Method: Xenopus laevis oocytes were harvested and injected as described (Donaldson, et al., J. Biol. Chem. 277:8338 (2002)). Defolliculated healthy stage V-VI oocytes were injected with 0.3 ng of CRNA of each ENaC subunit. Injected oocytes were kept in modified Barth's saline (in mM: 88 NaCl, 1 KCl, 2.4 NaHCO3, 0.3 Ca(NO3)2, 0.41 CaCl2, 0.82 MgSO4, and 15 HEPES, adjusted to pH 7.35 with Tris). Oocytes were studied 24 hr after injection using the two electrode voltage clamp technique as previously described (Donaldson, et al., J. Biol. Chem. 277:8338 (2002)). Oocytes were clamped at a holding potential of −60 mV. The change in amiloride-sensitive whole cell current as an indicator of ENaC activity was determined by subtracting the corresponding current value measured in the presence of 10 μM amiloride from that measured before the application of amiloride. Where appropriate, oocytes were incubated with G22-A39 or ABC for 1 h prior to recording. In some experiments β-ENaC^S518C was used which forms ENaCs that are locked into an open probability near 1.0 by exposure to the sulthydral reactive reagent [2-(Trimethyl-ammonium)ethyl]methanethiosulphonate bromide (MTSET). MTSET was added at a concentration of 1 mM to the oocyte bath as previously described (Snyder, J. Clin. Invest. 105: 45 (2000)).

O=S(=O)(O)CC(O)CN1CCN(CC(O)CS(=O)(=O)O)CC1 (stereo not drawn) [POPSO, reference compound]
NL ASL height (NL HBECs): no effect
CF ASL height (CF HBECs): significantly elevated

B1: LPLUNC1: long PLUNC family member co-expressed in Xenopus oocytes (protein)
chain: TLSPTAVLILGPKVIKEKLTQELKDHNATSILQQLPLLSAMREKPAGGIPVLGSLVNTVLKHIIWLKVITANILQLQVKPSANDQELLVKIPLDMVAGFNTPLVKTIVEFHMTTEAQATIRMDTSASGPTRLVLSDCATSHGSLRIQLLHKLSFLVNALAKQVMNLLVPSLPNLVKNQLCPVIEASFNGMYADLLQLVKVPISLSIDRLEFDLLYPAIKGDTIQLYLGAKLLDSQGKVTKWFNNSAASLTMPTLDNIPFSLIVSQDVVKAAVAAVLSPEEFMVLLDSVLPESAHRLKSSIGLINEKAADKLGSTQIVKILTQDTPEFFIDQGHAKVAQLIVLEVFPSSEALRPLFTLGIEASSEAQFYTKGDQLILNLNNISSDRIQLMNSGIGWFQPDVLKNIITEIIHSILLPNQNGKLRSGVPVSLVKALGFEAAESSLTKDALVLTPASLWKPSSPVSQ
amiloride-sensitive ENaC current relative to control, co-expression (αβγENaC): no significant ENaC current reduction
